The molecules below were run against Nanoluciferase-BRD9 fusion protein (3×FLAG-NLuc-BRD9) in SYO-1 cells (Homo sapiens (Human), UniProt Q9H8M2) (assay: SYO1 BRD9 NanoLuc degradation assay). Settings: SYO-1 cells expressing 3×FLAG-NLuc-BRD9, 6 hours incubation, top dose 1 μM.
Format: cell-based
Method in brief: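 Stable SYO-1 line expressing 3×FLAG-NLuc-BRD9, treated with 10-point 3-fold dilutions (top 1 μM final) for 6 hours. Nanoluciferase luminescence read with Nano-Glo reagent. % inhibition relative to DMSO (high control) and 1 μM reference BRD9 degrader (low control).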

Nanoluciferase-BRD9 fusion protein (3×FLAG-NLuc-BRD9) in SYO-1 cells, sequence (Q9H8M2 whole entry, the tested form may be a part): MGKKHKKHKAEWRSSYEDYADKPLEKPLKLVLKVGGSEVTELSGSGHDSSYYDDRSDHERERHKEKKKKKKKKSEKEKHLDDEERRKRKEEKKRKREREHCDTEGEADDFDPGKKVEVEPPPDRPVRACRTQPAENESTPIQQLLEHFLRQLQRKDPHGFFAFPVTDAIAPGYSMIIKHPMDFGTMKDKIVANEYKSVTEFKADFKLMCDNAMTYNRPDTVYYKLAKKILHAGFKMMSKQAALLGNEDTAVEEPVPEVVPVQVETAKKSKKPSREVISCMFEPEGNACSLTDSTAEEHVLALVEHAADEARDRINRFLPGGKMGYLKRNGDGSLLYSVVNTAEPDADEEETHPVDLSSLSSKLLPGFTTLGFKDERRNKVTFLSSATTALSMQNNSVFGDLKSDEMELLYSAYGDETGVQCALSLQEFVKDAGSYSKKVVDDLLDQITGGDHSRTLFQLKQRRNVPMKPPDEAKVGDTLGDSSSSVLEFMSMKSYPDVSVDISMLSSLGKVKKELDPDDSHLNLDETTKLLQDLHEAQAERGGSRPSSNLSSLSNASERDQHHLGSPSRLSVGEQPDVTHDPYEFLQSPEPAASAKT

First: CNC(=O)N1CCc2c(-c3cc(OC)c(CN4CC5(CC(N)C5)C4)c(OC)c3)cn(C)c(=O)c2C1 [Compound B22]
Second: CNC(=O)N1CCc2c(-c3cc(OC)c(CN4CCN(c5ccc6c(c5)C(=O)N(C5CCC(=O)NC5=O)C6=O)CC4)c(OC)c3)cn(C)c(=O)c2C1 (stereo not drawn) [Compound D131]
The IC50 of the first is higher: no less than 1000 nM for the first, less than 10 nM for the second.

Going from `CNC(=O)N1CCc2c(-c3cc(OC)c(CN4CCC(CCN5CCN(c6ccc7c(c6)C6(CC6)N(C6CCC(=O)NC6=O)C7=O)CC5)CC4)c(OC)c3)cn(C)c(=O)c2C1` (stereo not drawn) [Compound D54] to `CNC(=S)N1CCc2c(-c3cc(OC)c(CN4CCC(CCN5CCN(c6ccc7c(c6)C(=O)N(C6CCC(=O)NC6=O)C7=O)CC5)CC4)c(OC)c3)cn(C)c(=O)c2C1` (stereo not drawn) [Compound D63], the IC50 falls from no less than 1000 nM to less than 10 nM. The second is the more potent here.

Compared with `COc1cc(-c2cn(C)c(=O)c3c2CCN(C(=O)NCCCN2CCC(OCC4CCN(c5ccc6c(c5)C(=O)N(C5CCC(=O)NC5=O)C6=O)CC4)C2)C3)cc(OC)c1CN(C)C` (stereo not drawn) [Compound D229], `COc1cc(-c2cn(C)c(=O)c3c2CCN(C(=O)NCCCN2CCC(N4CCN(c5ccc6c(c5)C(=O)N(C5CCC(=O)NC5=O)C6=O)CC4)C2)C3)cc(OC)c1CN(C)C` (stereo not drawn) [Compound D227] is lower in IC50: 10 to 100 nM for the first, less than 10 nM for the second.

First: CNC(=O)N1CCc2c(-c3cnc(CN4CCC(CCN5CCN(c6ccc7c(c6)C(=O)N(C6CCC(=O)NC6=O)C7=O)CC5)CC4)c(OC)c3)cn(C)c(=O)c2C1 (stereo not drawn) [Compound D92]
Second: CNC(=O)N1CCc2c(-c3cc(OC)c(CN4CCC(C(F)(F)CN5CCN(c6ccc7c(c6)C(=O)N(C6CCC(=O)NC6=O)C7=O)CC5)CC4)c(OC)c3)cn(C)c(=O)c2C1 (stereo not drawn) [Compound D154]
The IC50 of the first is higher: 10 to 100 nM for the first, less than 10 nM for the second.

`[2H]C1([2H])N(CCC2CCN(c3ccc4c(c3)C(=O)N(C3CCC(=O)NC3=O)C4=O)CC2)C([2H])([2H])C([2H])([2H])N(Cc2c(OC)cc(-c3cn(C)c(=O)c4c3CCN(C(=O)NC)C4)cc2OC)C1([2H])[2H]` (stereo not drawn) [Compound D105] and `CNC(=O)N1CCc2c(-c3cc(OC)c(CN4CCC(CCN5C(C)CN(c6ccc7c(c6)C(=O)N(C6CCC(=O)NC6=O)C7=O)CC5C)CC4)c(OC)c3)cn(C)c(=O)c2C1` (stereo not drawn) [Compound D145] cannot be ordered by IC50: less than 10 nM for the first, less than 10 nM for the second.

First: COc1cc(-c2cn(C)c(=O)c3c2CCN(C(=O)NCCN2CCN(c4ccc5c(c4)C(=O)N(C4CCC(=O)NC4=O)C5=O)CC2)C3)cc(OC)c1CN(C)C (stereo not drawn) [Compound D150]
Second: COc1cc(-c2cn(C)c(=O)c3c2CCN(C(=O)NCCN2CCC4(CCN(c5ccc6c(c5)C(=O)N(C5CCC(=O)NC5=O)C6=O)C4)C2)C3)cc(OC)c1CN(C)C (stereo not drawn) [Compound D190]
The IC50 of the first is lower: 10 to 100 nM for the first, 100 to 1000 nM for the second. The first is the more potent here.

First: CNC(=O)N1CCc2c(-c3cc(OC)c(CN(C)CC45CC(C(=O)NCCCCCOc6cccc7c6C(=O)N(C6CCC(=O)NC6=O)C7=O)(C4)C5)c(OC)c3)cn(C)c(=O)c2C1 (stereo not drawn) [Compound D288]
Second: CNC(=O)N1CCc2c(-c3cc(OC)c(CN(C)C45CC(C(=O)NCCCCCOc6cccc7c6C(=O)N(C6CCC(=O)NC6=O)C7=O)(C4)C5)c(OC)c3)cn(C)c(=O)c2C1 (stereo not drawn) [Compound D283]
The IC50 of the first is higher: 100 to 1000 nM for the first, less than 10 nM for the second. The second is the more potent here.

`CNC(=O)N1CCc2c(c(-c3cc(OC)c(CN(C)CC(=O)NCCOCCOc4cccc5c4C(=O)N(C4CCC(=O)NC4=O)C5=O)c(OC)c3)cn(C)c2=O)C1` (stereo not drawn) [Compound D297] and `CNC(=O)N1CCc2c(-c3cc(OC)c(CN(C)CC45CC(C(=O)NCCCCCOc6ccc7c(c6)C(=O)N(C6CCC(=O)NC6=O)C7=O)(C4)C5)c(OC)c3)cn(C)c(=O)c2C1` (stereo not drawn) [Compound D286] cannot be ordered by IC50: no less than 1000 nM for the first, 100 to 1000 nM for the second.

`COc1cc(-c2cn(C)c(=O)c3c2CCN(C(=O)NC2C[C@@H]4CN(CCOc5ccc6c(c5)C(=O)N(C5CCC(=O)NC5=O)C6=O)C[C@H]24)C3)cc(OC)c1CN(C)C` (stereo partly drawn) [Compound D249] and `COc1cc(-c2cn(C)c(=O)c3c2CCN(C(=O)NC2CC4(C2)CN(CCOc2ccc5c(c2)C(=O)N(C2CCC(=O)NC2=O)C5=O)C4)C3)cc(OC)c1CN(C)C` (stereo not drawn) [Compound D264] cannot be ordered by IC50: no less than 1000 nM for the first, no less than 1000 nM for the second.

Compared with `COc1cc(-c2cn(C)c(=O)c3c2CCN(C(=O)NC2CC4CN(CCCCN5CCN(c6ccc7c(c6)C(=O)N(C6CCC(=O)NC6=O)C7=O)CC5)CC4C2)C3)cc(OC)c1CN(C)C` (stereo not drawn) [Compound D245], `COc1cc(-c2cn(C)c(=O)c3c2CCN(C(=O)NCCCN2CCC4C(C2)CN4c2ccc4c(c2)C(=O)N(C2CCC(=O)NC2=O)C4=O)C3)cc(OC)c1CN(C)C` (stereo not drawn) [Compound D231] is lower in IC50: 100 to 1000 nM for the first, less than 10 nM for the second.

First: COc1cc(-c2cn(C)c(=O)c3c2CCN(C(=O)NCC2CC24CCN(CCCOc2ccc5c(c2)C(=O)N(C2CCC(=O)NC2=O)C5=O)CC4)C3)cc(OC)c1CN(C)C (stereo not drawn) [Compound D242]
Second: COc1cc(-c2cn(C)c(=O)c3c2CCN(C(=O)NCC2CC24CCN(CCOc2ccc5c(c2)C(=O)N(C2CCC(=O)NC2=O)C5=O)CC4)C3)cc(OC)c1CN(C)C (stereo not drawn) [Compound D269]
The IC50 of the first is higher: 100 to 1000 nM for the first, 10 to 100 nM for the second.

`CNC(=O)N1CCc2c(-c3cc(OC)c(CN4CCN(CCN5CCC(c6ccc7c(c6)CN(C6CCC(=O)NC6=O)C7=O)CC5)CC4)c(OC)c3)cn(C)c(=O)c2C1` (stereo not drawn) [Compound D72] and `CNC(=O)N1CCc2c(-c3cc(OC)c(CN4CCC(CCN5CCC(c6ccc7c(c6)C(=O)N(C6CCC(=O)NC6=O)C7)CC5)CC4)c(OC)c3)cn(C)c(=O)c2C1` (stereo not drawn) [Compound D73] cannot be ordered by IC50: less than 10 nM for the first, less than 10 nM for the second.

Compared with `COc1cc(-c2cn(C)c(=O)c3c2CCN(C(=O)NC2CC4(CCN(CCOc5ccc6c(c5)C(=O)N(C5CCC(=O)NC5=O)C6=O)C4)C2)C3)cc(OC)c1CN(C)C` (stereo not drawn) [Compound D228], `CNC(=O)N1CCc2c(-c3cc(OC)c(CN4CCC(C(=O)N5CCC6(CC5)CC(Oc5ccc7c(c5)C(=O)N(C5CCC(=O)NC5=O)C7=O)C6)CC4)c(OC)c3)cn(C)c(=O)c2C1` (stereo not drawn) [Compound D254] is lower in IC50: 10 to 100 nM for the first, less than 10 nM for the second.

In the case of `CNC(=O)N1CCc2c(-c3cc(OC)c(CN4CCC(CCN(C)C5CN(c6ccc7c(c6)C(=O)N(C6CCC(=O)NC6=O)C7=O)C5)CC4)c(OC)c3)cn(C)c(=O)c2C1` (stereo not drawn) [Compound D171], the IC50 is reported as less than 10 nM.

Same assay, conditions: SYO-1 cells expressing 3×FLAG-NLuc-BRD9, 6 hours incubation, top dose 1 μM; read-out: SYO1 BRD9-NanoLuc degradation IC50

`COc1cc(-c2cn(C)c(=O)c3c2CN(C)CC3)cc(OC)c1CN1CC(CN2CCC3(CC2)CN(c2ccc4c(c2)C(=O)N(C2CCC(=O)NC2=O)C4)C3)C1` (stereo not drawn) [Compound D293] was tested, and the DC50 was 100 to 1000 nM.

Same assay, conditions: SYO-1 cells, 6 hours, Table 6A

`COc1cc(-c2cn(C)c(=O)c3c2CCN(C(=O)NCCN(C)CCNc2cccc4c2C(=O)N(C2CCC(=O)NC2=O)C4=O)C3)cc(OC)c1CN(C)C` (stereo not drawn) [Compound D6, 5-[4-[(dimethylamino)methyl]-3,5-dimethoxyphenyl]-N-[2-[(2-[[2-(2,6-dioxopiperidin-3-yl)-1,3-dioxoisoindol-4-yl]amino]ethyl)(methyl)amino]ethyl]-7-methyl-8-oxo-3,4-dihydro-1H-2,7-naphthyridine-2-carboxamide] and `COc1cc(-c2cn(C)c(=O)c3c2CCN(C(=O)NCCOCCOCCNc2cccc4c2CN(C2CCC(=O)NC2=O)C4=O)C3)cc(OC)c1CN(C)C` (stereo not drawn) [Compound D5, 5-[4-[(dimethylamino)methyl]-3,5-dimethoxyphenyl]-N-[2-[2-(2-[[2-(2,6-dioxopiperidin-3-yl)-1-oxo-3H-isoindol-4-yl]amino]ethoxy)ethoxy]ethyl]-7-methyl-8-oxo-3,4-dihydro-1H-2,7-naphthyridine-2-carboxamide formic acid] cannot be ordered by IC50: greater than 100 nM for the first, greater than 1000 nM for the second.

Molecule `CNC(=O)N1CCc2c(-c3cc(OC)c(CN4CCC5(CC4)CN(C(=O)CCCOc4cccc6c4C(=O)N(C4CCC(=O)NC4=O)C6=O)CCO5)c(OC)c3)cn(C)c(=O)c2C1` (stereo not drawn) [Compound D3, 5-(4-[[4-(4-[[2-(2,6-dioxopiperidin-3-yl)-1,3-dioxoisoindol-4-yl]oxy]butanoyl)-1-oxa-4,9-diazaspiro[5.5]undecan-9-yl]methyl]-3,5-dimethoxyphenyl)-N,7-dimethyl-8-oxo-3,4-dihydro-1H-2,7-naphthyridine-2-carboxamide] has an IC50 greater than 100 nM.

Same assay, conditions: SYO-1 cells, 6 hours, Table 6C

`COc1cc(-c2cn(C)c(=O)c3c2COC3)cc(OC)c1CN1CCC2(CC1)CN(c1ccc3c(c1)C(=O)N(C1CCC(=O)NC1=O)C3=O)C2` (stereo not drawn) [Compound D358] and `COc1cc(-c2cn(C)c(=O)c3c2CCCN3)cc(OC)c1CN1CCC2(CC1)CN(c1ccc3c(c1)C(=O)N(C1CCC(=O)NC1=O)C3=O)C2` (stereo not drawn) [Compound D351] cannot be ordered by IC50: less than 10 nM for the first, no less than 10 nM for the second.

`CNC(=O)N1CCc2c(-c3cc(OC)c(CN4CCC5(CN(c6ccc7c(c6)C(=O)N(C6CCC(=O)NC6=O)C7)C5)C(C)C4)c(OC)c3)cn(C)c(=O)c2C1` (stereo not drawn) [Compound D304] and `CNC(=O)N1CCc2c(-c3cc(OC)c(CN4CCC5(CN(c6ccc7c(c6)C(=O)N(C6CCC(=O)NC6=O)C7)C5)C(F)(F)C4)c(OC)c3)cn(C)c(=O)c2C1` (stereo not drawn) [Compound D306] cannot be ordered by IC50: less than 10 nM for the first, less than 10 nM for the second.

`COc1cc(-c2cn(C)c(=O)c3c2NCC3)cc(OC)c1CN1CC(CN2CCC3(CC2)CN(c2ccc4c(c2)C(=O)N(C2CCC(=O)NC2=O)C4)C3)C1` (stereo not drawn) [Compound D350] and `COc1cc(-c2cn(C)c(=O)c3c2CCCN3)cc(OC)c1CN1CCC2(CC1)CN(c1ccc3c(c1)C(=O)N(C1CCC(=O)NC1=O)C3)C2` (stereo not drawn) [Compound D361] cannot be ordered by IC50: less than 10 nM for the first, less than 10 nM for the second.

`COc1cc(-c2cn(C)c(=O)c3c2CCN(C(=O)NCC(F)F)C3)cc(OC)c1CN1CCC(CN2CCC3(CC2)CN(c2ccc4c(c2)C(=O)N(C2CCC(=O)NC2=O)C4)C3)CC1` (stereo not drawn) [Compound D336] and `COc1cc(-c2cn(C)c(=O)c3c2CCN(C(=O)NCC(F)F)C3)cc(OC)c1CN1CCN(CCC2CCN(c3ccc4c(c3)C(=O)N(C3CCC(=O)NC3=O)C4)CC2)CC1` (stereo not drawn) [Compound D344] cannot be ordered by IC50: less than 10 nM for the first, less than 10 nM for the second.

Compared with `CNC(=O)N1CCc2c(-c3cc(OC)c(CN4[C@H](C)CN(CCC5CCN(c6ccc7c(c6)CN(C6CCC(=O)NC6=O)C7=O)CC5)C[C@H]4C)c(OC)c3)cn(C)c(=O)c2C1` (stereo partly drawn) [Compound D325], `CNC(=O)N1CCc2c(-c3cc(OC)c(CN4CCN(CCC5CCN(c6ccc7c(c6)C(=O)N(C6CCC(=O)N(C)C6=O)C7)CC5)CC4)c(OC)c3)cn(C)c(=O)c2C1` (stereo not drawn) [Compound D305] is higher in IC50: less than 10 nM for the first, no less than 1000 nM for the second. The first is the more potent here.

Molecule `COc1cc(-c2cn(C)c(=O)c3c2CCC3)cc(OC)c1CN1CCC2(CC1)CN(c1ccc3c(c1)C(=O)N(C1CCC(=O)NC1=O)C3)C2` (stereo not drawn) [Compound D356] has an IC50 of less than 10 nM.
